{
  "source": "paper PMC9481570",
  "about": "“A small molecule antagonist of SMN disrupts the interaction between SMN and RNAP II” (Nature Communications, 2022)",
  "experiment_in_all_cases": "Affinity-purification and mass spectrometry (AP-MS) chemical proteomics, all proteins;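 on Difference: 200 µM free competitor with 20 µM biotin probe overnight in lysate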",
  "assay_type_in_all_cases": "binding",
  "key": {"[1]": {"target": "T1, proteins displaced from immobilized biotin-Cmpd 1 pulldowns (U2OS cell lysate) (Homo sapiens, UniProt P05109)", "T1 construct": "endogenous in cells; host or cells: U2OS", "T1 sequence (P05109 whole entry)": "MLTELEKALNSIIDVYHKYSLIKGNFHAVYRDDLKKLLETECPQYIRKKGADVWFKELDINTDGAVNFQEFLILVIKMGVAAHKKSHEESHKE", "conditions": "GN=S100A8 (P05109)", "description": "(§1) The samples for AP-MS were prepared following pulldown procedure as previously described with minor modifications. Briefly, U2OS cells were lysed in RIPA buffer and the cell lysate was equally divided into two groups: (1) DMSO group (control group): the cell lysate was incubated with 20 μM biotin-labeled compound 1; (2) Cpmd 1 group (sample group): the cell lysate was incubated with 20 μM biotin-labeled compound 1 and 200 μM free compound 1. Each group contains three biological replicates. They were incubated overnight at 4 °C, then 30 μL streptavidin beads (Thermo Fisher, 20353) was added and incubated at 4 °C for 1 h. The beads were then washed with RIPA buffer for 3 times, 10 min/time.\n(§2) Beads were rinsed twice with 50 mM TEAB, pH 7.55, before eluting proteins with 25 μL of 5% SDS, 50 mM TEAB, pH 7.55. The sample was then centrifuged at 17,000 × g for 10 min to remove any debris. Proteins were reduced with 20 mM TCEP (Thermo Fisher, 77720) and incubated at 65 °C for 30 min. The sample was cooled to room temperature and 1 μL of 0.5 M iodoacetamide acid was added and allowed to react for 20 min in dark. Phosphoric acid (12%, 2.75 μL) was added to the protein solution, followed by adding 165 μL of binding buffer (90% methanol, 100 mM TEAB, pH 7.1). The resulting solution was added to S-Trap spin column (protifi.com) and passed through the column using a bench top centrifuge (30 s spin at 4000 × g). The spin column was washed with 400 μL of binding buffer and centrifuged. This step was repeated two more times. Then trypsin was added to the protein mixture at a mass ratio of 1:25 in 50 mM TEAB, pH 8.0, and the sample was incubated at 37 °C for 4 h. Peptides were eluted with 80 μL of 50 mM TEAB, followed by 80 μL of 0.2% formic acid, and finally 80 μL of 50% acetonitrile, 0.2% formic acid. The combined peptide solution was then dried in a speed vac and resuspended in 2% acetonitrile, 0.1% formic acid, 97.9% water and placed in an autosampler vial.\n(§3) Samples were analyzed by nanoLC-MS/MS (nanoRSLC, Thermo Fisher) using an Aurora series (Ion Opticks) reversed phase HPLC column (25 cm length × 75 µm inner diameter) and directly injected to an Orbitrap Eclipse (Thermo Fisher) using a 120 min gradient (mobile phase A = 0.1% formic acid, mobile phase B = 99.9% acetonitrile with 0.1% formic acid; hold 2% B for 5 min, 2–6% B in 0.1 min, 6–25% in 100 min, 25–50% in 15 min) at a flow rate of 350 nL/min. Eluted peptide ions were analyzed using a data-dependent acquisition (DDA) method with resolution settings of 120,000 and 15,000 (at m/z 200) for MS1 and MS2 scans, respectively. DDA-selected peptides were fragmented using stepped high energy collisional dissociation (27, 32, and 37%).\n(§4) The data of AP-MS were analyzed as a previously described method with minor modifications. Briefly, the raw MS files were searched with MaxQuant software (version 1.6.1.1, www.maxquant.org)[56] against the UniProt human protein database (www.uniprot.org) concatenated with common contaminants and the decoy database. The mass tolerance for precursor ions was set to 20 ppm and 4.5 ppm for the first and main search, respectively. The cysteine carbamidomethylation was set as fixed modification and methionine oxidation and N-terminal acetylation as variable modifications. Enzyme specificity was set to trypsin and a maximum missed cleavage was set as 2. The 1% false discovery rate (FDR) at both peptide and protein levels was applied for the analysis. Relative protein quantification was based on the label-free quantification incorporated in the MaxQuant software. The iBAQ intensity of proteins was obtained for the control and experimental samples. The missing iBAQ intensity was replaced by a random number, which was calculated from a normal distribution with a width of 0.3 and a downshift of 1.8 defined by Perseus software (version 1.6.5.0). The P-value was calculated by performing two-sample Student’s t-test. […]"}, "[2]": {"target": "T2, proteins displaced from immobilized biotin-Cmpd 1 pulldowns (U2OS cell lysate) (Homo sapiens, UniProt P54098)", "T2 construct": "endogenous in cells; host or cells: U2OS", "conditions": "GN=POLG (P54098)", "description": "as §1, §2, §3, §4"}, "[3]": {"target": "T3, proteins displaced from immobilized biotin-Cmpd 1 pulldowns (U2OS cell lysate) (Homo sapiens, UniProt Q96AE4)", "T3 construct": "endogenous in cells; host or cells: U2OS", "T3 sequence (Q96AE4 whole entry)": "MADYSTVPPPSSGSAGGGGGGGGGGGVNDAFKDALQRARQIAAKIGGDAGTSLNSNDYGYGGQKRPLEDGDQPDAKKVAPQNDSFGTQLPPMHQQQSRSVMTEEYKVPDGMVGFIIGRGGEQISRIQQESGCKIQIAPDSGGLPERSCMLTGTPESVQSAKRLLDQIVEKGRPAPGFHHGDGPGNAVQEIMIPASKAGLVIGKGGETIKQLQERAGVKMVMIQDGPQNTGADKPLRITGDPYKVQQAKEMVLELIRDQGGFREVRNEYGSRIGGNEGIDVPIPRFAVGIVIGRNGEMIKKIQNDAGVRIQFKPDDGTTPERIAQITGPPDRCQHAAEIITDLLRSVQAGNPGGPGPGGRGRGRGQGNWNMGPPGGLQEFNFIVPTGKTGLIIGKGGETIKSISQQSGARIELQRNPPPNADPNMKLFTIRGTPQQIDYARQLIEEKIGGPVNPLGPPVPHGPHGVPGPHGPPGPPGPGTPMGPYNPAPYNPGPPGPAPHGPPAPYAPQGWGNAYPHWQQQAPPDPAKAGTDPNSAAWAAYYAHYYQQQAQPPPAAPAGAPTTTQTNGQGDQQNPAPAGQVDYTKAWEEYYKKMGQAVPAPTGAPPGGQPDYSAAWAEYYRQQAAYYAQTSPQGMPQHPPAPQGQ", "conditions": "GN=FUBP1 (Q96AE4)", "description": "as §1, §2, §3, §4"}, "[4]": {"target": "T4, proteins displaced from immobilized biotin-Cmpd 1 pulldowns (U2OS cell lysate) (Homo sapiens, UniProt Q92621)", "T4 construct": "endogenous in cells; host or cells: U2OS", "T4 sequence (Q92621 whole entry)": "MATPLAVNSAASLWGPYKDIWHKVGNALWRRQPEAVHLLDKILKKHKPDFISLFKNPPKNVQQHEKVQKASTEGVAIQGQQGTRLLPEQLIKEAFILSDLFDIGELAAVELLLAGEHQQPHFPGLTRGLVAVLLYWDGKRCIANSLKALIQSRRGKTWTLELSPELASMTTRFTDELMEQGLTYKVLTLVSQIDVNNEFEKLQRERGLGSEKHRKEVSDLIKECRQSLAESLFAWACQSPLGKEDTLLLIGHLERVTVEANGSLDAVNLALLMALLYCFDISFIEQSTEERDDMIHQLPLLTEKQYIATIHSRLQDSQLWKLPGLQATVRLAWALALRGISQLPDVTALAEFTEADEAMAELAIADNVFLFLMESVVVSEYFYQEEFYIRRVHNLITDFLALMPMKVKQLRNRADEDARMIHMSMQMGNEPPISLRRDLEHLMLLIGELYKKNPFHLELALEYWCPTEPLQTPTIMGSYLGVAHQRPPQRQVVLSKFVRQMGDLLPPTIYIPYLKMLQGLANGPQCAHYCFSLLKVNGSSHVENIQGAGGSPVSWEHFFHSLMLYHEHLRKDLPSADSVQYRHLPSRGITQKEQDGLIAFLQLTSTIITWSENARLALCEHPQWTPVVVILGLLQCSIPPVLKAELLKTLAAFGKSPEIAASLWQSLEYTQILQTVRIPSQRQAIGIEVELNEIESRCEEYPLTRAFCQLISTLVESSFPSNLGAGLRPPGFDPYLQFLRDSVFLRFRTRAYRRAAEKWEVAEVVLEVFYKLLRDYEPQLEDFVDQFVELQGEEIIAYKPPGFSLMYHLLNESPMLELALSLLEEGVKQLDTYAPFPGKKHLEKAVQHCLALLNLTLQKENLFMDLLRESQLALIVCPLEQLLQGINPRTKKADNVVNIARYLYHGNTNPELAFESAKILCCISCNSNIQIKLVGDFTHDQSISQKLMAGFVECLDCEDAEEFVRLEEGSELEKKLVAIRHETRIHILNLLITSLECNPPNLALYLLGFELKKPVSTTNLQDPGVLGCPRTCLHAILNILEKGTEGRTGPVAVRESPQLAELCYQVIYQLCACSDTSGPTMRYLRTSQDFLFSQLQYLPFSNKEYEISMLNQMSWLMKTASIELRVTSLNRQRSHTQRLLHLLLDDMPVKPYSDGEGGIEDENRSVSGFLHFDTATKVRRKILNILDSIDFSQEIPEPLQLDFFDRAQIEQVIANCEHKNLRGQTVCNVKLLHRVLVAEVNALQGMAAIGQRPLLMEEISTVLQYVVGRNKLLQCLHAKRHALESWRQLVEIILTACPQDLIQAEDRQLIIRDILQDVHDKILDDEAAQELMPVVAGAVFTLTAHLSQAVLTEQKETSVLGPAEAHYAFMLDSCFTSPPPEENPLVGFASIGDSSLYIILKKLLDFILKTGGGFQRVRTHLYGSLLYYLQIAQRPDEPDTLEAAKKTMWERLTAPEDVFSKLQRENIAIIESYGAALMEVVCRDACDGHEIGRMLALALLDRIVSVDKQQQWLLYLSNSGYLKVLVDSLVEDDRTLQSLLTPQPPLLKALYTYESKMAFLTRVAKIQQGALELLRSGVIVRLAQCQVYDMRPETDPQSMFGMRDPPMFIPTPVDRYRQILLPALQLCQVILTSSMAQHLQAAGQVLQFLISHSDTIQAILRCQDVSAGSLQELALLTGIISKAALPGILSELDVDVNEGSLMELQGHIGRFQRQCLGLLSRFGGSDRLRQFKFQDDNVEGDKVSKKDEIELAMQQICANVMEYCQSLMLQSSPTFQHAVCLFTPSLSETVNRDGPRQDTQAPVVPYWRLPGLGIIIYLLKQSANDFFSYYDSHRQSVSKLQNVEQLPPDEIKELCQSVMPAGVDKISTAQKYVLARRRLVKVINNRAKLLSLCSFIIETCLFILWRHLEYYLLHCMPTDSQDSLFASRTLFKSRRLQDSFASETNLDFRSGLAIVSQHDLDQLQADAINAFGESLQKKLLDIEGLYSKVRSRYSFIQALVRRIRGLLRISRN", "conditions": "GN=NUP205 (Q92621)", "description": "as §1, §2, §3, §4"}, "[5]": {"target": "T5, proteins displaced from immobilized biotin-Cmpd 1 pulldowns (U2OS cell lysate) (Homo sapiens, UniProt Q04837)", "T5 construct": "endogenous in cells; host or cells: U2OS", "T5 sequence (Q04837 17-148)": "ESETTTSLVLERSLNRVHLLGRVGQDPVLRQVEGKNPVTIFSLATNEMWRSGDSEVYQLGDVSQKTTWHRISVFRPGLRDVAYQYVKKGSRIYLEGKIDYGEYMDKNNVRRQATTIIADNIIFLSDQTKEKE", "conditions": "GN=SSBP1 (Q04837)", "description": "as §1, §2, §3, §4"}, "[6]": {"target": "T6, proteins displaced from immobilized biotin-Cmpd 1 pulldowns (U2OS cell lysate) (Homo sapiens, UniProt Q96DA0)", "T6 construct": "endogenous in cells; host or cells: U2OS", "T6 sequence (Q96DA0 17-172)": "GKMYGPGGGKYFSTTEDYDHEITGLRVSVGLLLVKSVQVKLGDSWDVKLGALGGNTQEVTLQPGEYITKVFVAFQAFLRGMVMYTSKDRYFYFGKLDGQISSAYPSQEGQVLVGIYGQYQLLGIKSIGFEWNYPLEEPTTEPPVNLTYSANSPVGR", "conditions": "GN=ZG16B (Q96DA0)", "description": "as §1, §2, §3, §4"}, "[7]": {"target": "T7, proteins displaced from immobilized biotin-Cmpd 1 pulldowns (U2OS cell lysate) (Homo sapiens, UniProt Q9NQC3)", "T7 construct": "endogenous in cells; host or cells: U2OS", "T7 sequence (Q9NQC3 whole entry)": "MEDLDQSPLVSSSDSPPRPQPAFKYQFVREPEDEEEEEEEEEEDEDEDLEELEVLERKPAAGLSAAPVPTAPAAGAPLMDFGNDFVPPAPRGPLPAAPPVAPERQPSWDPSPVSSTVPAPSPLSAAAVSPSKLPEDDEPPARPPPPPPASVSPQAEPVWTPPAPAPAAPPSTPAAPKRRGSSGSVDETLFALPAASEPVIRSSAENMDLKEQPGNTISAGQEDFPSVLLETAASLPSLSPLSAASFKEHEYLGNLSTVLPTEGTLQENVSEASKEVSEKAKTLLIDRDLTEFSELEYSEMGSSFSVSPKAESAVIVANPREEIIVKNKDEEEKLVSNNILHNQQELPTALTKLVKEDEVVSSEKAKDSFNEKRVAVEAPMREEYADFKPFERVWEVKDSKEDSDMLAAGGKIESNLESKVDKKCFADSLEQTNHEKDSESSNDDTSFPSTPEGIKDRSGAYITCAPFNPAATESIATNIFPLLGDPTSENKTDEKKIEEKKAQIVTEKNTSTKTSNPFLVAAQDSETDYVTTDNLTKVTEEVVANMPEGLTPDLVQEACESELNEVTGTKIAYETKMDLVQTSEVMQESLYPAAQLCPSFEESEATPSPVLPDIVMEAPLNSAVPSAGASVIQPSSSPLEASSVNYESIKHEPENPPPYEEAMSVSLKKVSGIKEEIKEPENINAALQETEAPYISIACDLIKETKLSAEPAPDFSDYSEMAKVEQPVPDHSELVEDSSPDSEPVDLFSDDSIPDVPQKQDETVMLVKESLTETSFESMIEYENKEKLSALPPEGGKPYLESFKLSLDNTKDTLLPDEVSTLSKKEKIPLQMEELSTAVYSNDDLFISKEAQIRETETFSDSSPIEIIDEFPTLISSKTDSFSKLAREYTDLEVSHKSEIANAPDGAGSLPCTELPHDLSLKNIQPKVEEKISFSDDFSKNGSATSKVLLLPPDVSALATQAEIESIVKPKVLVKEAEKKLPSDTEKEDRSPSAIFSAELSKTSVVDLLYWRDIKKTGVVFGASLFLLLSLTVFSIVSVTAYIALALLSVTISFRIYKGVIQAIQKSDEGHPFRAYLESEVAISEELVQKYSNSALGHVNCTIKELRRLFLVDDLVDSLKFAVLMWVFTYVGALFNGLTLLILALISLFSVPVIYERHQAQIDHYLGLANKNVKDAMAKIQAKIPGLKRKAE", "conditions": "GN=RTN4 (Q9NQC3)", "description": "as §1, §2, §3, §4"}, "[8]": {"target": "T8, proteins displaced from immobilized biotin-Cmpd 1 pulldowns (U2OS cell lysate) (Homo sapiens, UniProt Q9UKD2)", "T8 construct": "endogenous in cells; host or cells: U2OS", "conditions": "GN=MRTO4 (Q9UKD2)", "description": "as §1, §2, §3, §4"}, "[9]": {"target": "T9, proteins displaced from immobilized biotin-Cmpd 1 pulldowns (U2OS cell lysate) (Homo sapiens, UniProt P10599)", "T9 construct": "endogenous in cells; host or cells: U2OS", "T9 sequence (P10599 whole entry)": "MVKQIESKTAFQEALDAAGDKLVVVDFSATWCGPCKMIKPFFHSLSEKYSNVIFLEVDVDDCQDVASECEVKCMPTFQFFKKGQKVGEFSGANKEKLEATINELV", "conditions": "GN=TXN (P10599)", "description": "as §1, §2, §3, §4"}, "[10]": {"target": "T10, proteins displaced from immobilized biotin-Cmpd 1 pulldowns (U2OS cell lysate) (Homo sapiens, UniProt P60174)", "T10 construct": "endogenous in cells; host or cells: U2OS", "T10 sequence (P60174 whole entry)": "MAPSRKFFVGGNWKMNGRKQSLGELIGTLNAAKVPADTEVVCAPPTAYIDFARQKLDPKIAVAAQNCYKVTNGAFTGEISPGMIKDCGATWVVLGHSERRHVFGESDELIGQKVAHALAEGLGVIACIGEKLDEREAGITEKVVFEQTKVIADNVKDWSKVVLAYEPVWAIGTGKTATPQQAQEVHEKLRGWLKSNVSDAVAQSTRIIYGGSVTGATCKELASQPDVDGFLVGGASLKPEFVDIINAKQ", "conditions": "GN=TPI1 (P60174)", "description": "as §1, §2, §3, §4"}},
  "note": "Where “and” joins values, the source holds several entries; their conditions need not be identical. Equal values may be shown once.",
  "data": [
    {"molecule": "Cn1c2c(c(=N)c3c1CCC3)CCC2", "note": "[Compound 1, 4-methyl-2,3,4,5,6,7-hexahydrodicyclopenta[b,e]pyridin-8(1H)-imine]", "values": [
      {"measurement": "Difference", "setting": "[1]; Cmpd minus DMSO, -LOG(P-value) 1.46412", "result": -2.055},
      {"measurement": "iBAQ Cmpd", "setting": "[1]; replicates 1-3", "result": "21.5375 and 20.6129 and 20.1927"},
      {"measurement": "Difference", "setting": "[2]; Cmpd minus DMSO, -LOG(P-value) 0.92162", "result": 0.489},
      {"measurement": "iBAQ Cmpd", "setting": "[2]; replicates 1-3", "result": "17.0695 and 17.0761 and 17.6776"},
      {"measurement": "Difference", "setting": "[3]; Cmpd minus DMSO, -LOG(P-value) 0.798774", "result": 1.187},
      {"measurement": "iBAQ Cmpd", "setting": "[3]; replicates 1-3", "result": "19.58 and 17.8353 and 18.5748"},
      {"measurement": "Difference", "setting": "[4]; Cmpd minus DMSO, -LOG(P-value) 0.772292", "result": 1.661},
      {"measurement": "iBAQ Cmpd", "setting": "[4]; replicates 1-3", "result": "17.4605 and 16.7059 and 15.0689"},
      {"measurement": "Difference", "setting": "[5]; Cmpd minus DMSO, -LOG(P-value) 1.29916", "result": 1.094},
      {"measurement": "iBAQ Cmpd", "setting": "[5]; replicates 1-3", "result": "21.1032 and 19.9004 and 20.5342"},
      {"measurement": "Difference", "setting": "[6]; Cmpd minus DMSO, -LOG(P-value) 1.41535", "result": -4.273},
      {"measurement": "iBAQ Cmpd", "setting": "[6]; replicates 1-3", "result": "15.4223 and 14.7351 and 17.7658"},
      {"measurement": "Difference", "setting": "[7]; Cmpd minus DMSO, -LOG(P-value) 0.85719", "result": 2.734},
      {"measurement": "iBAQ Cmpd", "setting": "[7]; replicates 1-3", "result": "19.1423 and 18.4673 and 18.3569"},
      {"measurement": "Difference", "setting": "[8]; Cmpd minus DMSO, -LOG(P-value) 1.00789", "result": 2.584},
      {"measurement": "iBAQ Cmpd", "setting": "[8]; replicates 1-3", "result": "18.8307 and 17.054 and 17.709"},
      {"measurement": "Difference", "setting": "[9]; Cmpd minus DMSO, -LOG(P-value) 1.02279", "result": -1.031},
      {"measurement": "iBAQ Cmpd", "setting": "[9]; replicates 1-3", "result": "20.7578 and 20.8108 and 19.926"},
      {"measurement": "Difference", "setting": "[10]; Cmpd minus DMSO, -LOG(P-value) 0.713184", "result": -0.9556},
      {"measurement": "iBAQ Cmpd", "setting": "[10]; replicates 1-3", "result": "17.6148 and 17.9108 and 16.6151"}
    ]}
  ]
}
